Assay results published in patent publication US8663620B2, “Murgantiol as a stink bug synergistic attractant for use outdoors” (Sterling International Inc., priority 2011, dated 2014).
Entries after “also recorded” stand apart in the source; their conditions may differ. Where two headings read alike, the source gives them in different places.

What was measured:
BMSB = conditions: cited from earlier work
A. hilare = conditions: Aldrich et al. 2007; Khrimian 2005; cited from earlier work
Euschistus spp. [1] = conditions: seven Euschistus spp.; Aldrich et al. 1991; cited from earlier work
[2] = tested on: brown marmorated stink bug (BMSB); assay: Field trapping Experiment 1 (Example 1): doses of racemic murgantiol vs standard attractants in Rescue! Stink Bug Traps; type: in vivo, Halyomorpha halys; conditions: for attraction of BMSB adults (mean numbers captured in baited traps): Pittsburgh, Pa., 14 days in early September, vs blank control, Duncan's test α=0.05; for attraction of BMSB adults (mean numbers captured in baited traps) / dose-response of trap catches: FIG. 2; for dose-response of trap catches: racemic murgantiol 10, 20, 40, 80 mg
Experimental: (§1) Two field trapping experiments were carried out from early to late September in home gardens/yards in Pittsburgh, Pa. In order to test the potential activity of the Harlequin bug pheromone, murgantiol, as a BMSB outdoor attractant or outdoor synergistic attractant to other known stink bug attractants, commercially available Rescue!® Stink Bug Traps (described in U.S. Pat. No. D645,534; U.S. Pat. No. D645,535; and U.S. patent application Ser. No. 13/331,394, filed Dec. 20, 2011) were used. Traps baited with different tested compounds or combinations were set up in lines, 1-1.5 m above the ground on either tree branches or fences ca. 3-5 m apart between each trap within a set, and at least 50 m between sets. For each trapping experiment, five sets of traps (i.e., five physical replicates of each treatment) were deployed with their initial trap positions within each set being randomized. To minimize positional effects and obtain more replications, stink bug collections and trap re-randomizations were carried out when ≧20 stink bugs were caught in the best traps. Each replicate lasted one to several days depending on stink bug activity. Captured stink bugs were removed from the traps and kept in plastic (polyethylene) zip-bags before returning to the laboratory for recording of the species, gender, and development status (nymphs, adult males/females), and catch. Murgantiol and the known stink bug attractants were released from dispensers [for example, 4 mil polyethylene bags (2.3×5.5 cm) or dispensers described in U.S. patent application Ser. No. 13/206,244, filed Aug. 9, 2011, incorporated herein by reference in its entirety]. Experiment 1 (Example 1) tested different doses of racemic murgantiol (MGT) in comparison with the known standard stink bug attractants [M246DT/M24DD], and the blank control. Trap catch data were converted to proportion (P) of total captured bugs within each replicate. The data were then transformed by arcsin (P)^1/2 to meet the assumptions of normality and homogeneity of variances for ANOVA (analysis of variance). Means were compared by ANOVA followed by the Duncan's multiple range test at α=0.05.

[3] = tested on: brown marmorated stink bug (BMSB); assay: Field trapping Experiment 2 (Example 2): attractant formulations with and without racemic murgantiol in Rescue! Stink Bug Traps; type: in vivo, Halyomorpha halys; conditions: outdoors, September; FIG. 3
Experimental: as §1, with “Murgantiol and the known stink bug attractants were released from dispensers [for example, 4 mil polyethylene bags (2.3×5.5 cm) or dispensers described in U.S. patent application Ser. No. 13/206,244, filed Aug. 9, 2011, incorporated herein by reference in its entirety]. Experiment 1 (Example 1) tested different doses of racemic murgantiol (MGT) in comparison with the known standard stink bug attractants [M246DT/M24DD], and the blank control. Trap catch data were converted to proportion (P) of total captured bugs within each replicate. The data were then transformed by arcsin (P)^1/2 to meet the assumptions of normality and homogeneity of variances for ANOVA (analysis of variance). Means were compared by ANOVA followed by the Duncan's multiple range test at α=0.05.” left out

Euschistus spp. [4] = assay: Outdoor trapping with Rescue! Stink Bug Traps, synergistic attraction; type: in vivo; conditions: outdoors
Harlequin bugs = conditions: insect-produced and synthetic murgantiol; laboratory; cited from earlier work
BMSB adults = conditions: both sexes of adults, overwintering and transition periods; cited from earlier work

CCC\C=C/C=C/C=C/C(=O)OC [M246DT, methyl (2E,4E,6Z)-decatrienoate]
field attraction of BMSB (BMSB; adults (males and females) and nymphs, Aldrich et al. 2007, Khrimian 2005): field attractant for both adults (males and females) and nymphs
attraction of BMSB (BMSB; late spring and early summer, dispersal (overwintered) adults): only weakly active
attraction of BMSB (BMSB; mid-summer and early fall): strongly attractive to both nymphs and adults
field attraction of A. hilare (A. hilare): field attractant

CCCCC/C=C\C=C\C(=O)OC [M24DD, methyl (2E,4Z)-decadienoate]
field attraction of Euschistus spp. (Euschistus spp. [1]): aggregation pheromone compound or field attractant

CC(CCC1OC1(C)C)C1C=CC(C)(O)CC1 (racemic) [murgantiol, 4-[3-(3,3-dimethyloxiran-2-yl)-1-methylpropyl]-1-methylcyclohex-2-en-1-ol]
attraction of BMSB adults (mean numbers captured in baited traps) ([2]; outdoors): active as an outdoor attractant; also recorded: comparable, if not more effective in attracting insects; also recorded: outdoor attractant for BMSBs in any dose amount
attraction of BMSB adults (mean numbers captured in baited traps) ([2]; outdoors, listed as MGT-A): strong attraction to BMSBs at levels similar or even higher than the known standard stink bug attractants
attraction of BMSB adults (mean numbers captured in baited traps) ([2]; outdoors, listed as MGT-B): strong attraction to BMSBs at levels similar or even higher than the known standard stink bug attractants
attraction of BMSB adults (mean numbers captured in baited traps) ([2]; outdoors, listed as MGT-C): strong attraction to BMSBs at levels similar or even higher than the known standard stink bug attractants
attraction of BMSB adults (mean numbers captured in baited traps) ([2]; outdoors, listed as MGT-D): strong attraction to BMSBs at levels similar or even higher than the known standard stink bug attractants
sexes and stages attracted and captured ([2]; outdoors, September, nymphs only 5% of total catches): Both sexes of adults (ca. 1:1) and nymphs were attracted and captured
dose-response of trap catches [2]: no significant dose-response effects
dose-response of trap catches ([2]; listed as MGT-A): as effective as the highest dose
effect of adding murgantiol to M246DT/M24DD attractants on BMSB trap catches (synergism) [3]: synergistically attract; also recorded: significant increases in attraction; also recorded: strong synergistic effects
synergistic attraction together with known stink bug attractants such as M246DT and M24DD (Euschistus spp. [4]): synergistically attract
attraction of Harlequin bugs (Harlequin bugs): attracted sexually mature Harlequin bugs of both sexes
indoor attraction of BMSB (BMSB adults): indoor attractant
